{"source": "patent US10434049B2", "about": "“Methods of producing compounds that stimulate hair regrowth, topical formulations, and methods of use” (Joventis S.A., priority 2013, dated 2019)", "assay_type_in_all_cases": "in vivo, human", "key": {"[1]": {"tested_on": "hair growth", "assay": "Six-month study, hair growth by digital analysis of photographs of a chosen spot", "description": "In a systematic study of twenty volunteers, including 8 women, study participants self-reported hair regrowth metrics by answering questionnaires at the end of each month of treatment with Formula (I) over the course of six months. The mean age of participants was 54 years old (SD=11 years). Participants had no history of hair implants and had normal eating and sleeping patterns. Participants first read and signed an informed consent form in which they were informed about the hair regeneration product, a lotion comprising Formula (I). The information about Formula (I) included that Formula (I) was designed to increase hair growth, that it was based on natural compounds, and that use of the product would not lead to harmful effects. Participants received explicit instructions on how to use the product, were asked to apply the product at least once a day on their scalp, and were asked not to use any other hair growth or regeneration products for the 6-month duration of the study. […] During this session photos were taken to measure and count any increases in hair regrowth, and participants answered questionnaires that probed the effects using Formula (I). […] Hair growth was measured by counting and estimating the total amount of thick/thin hairs on the specific spot, based on digital analysis of each photograph."}, "[2]": {"tested_on": "burn", "assay": "Burned hands of a lab technician, one hand treated, other untreated", "conditions": "treated for one month; untreated hand developed calluses", "method": "Along these lines, a lab technician who burned both hands, and hair regrowth at the site of the burn was assessed. One hand was treated for one month with a composition comprising Formula (I), and the other hand was left untreated. […] The untreated hand developed calluses instead."}, "[3]": {"tested_on": "hair growth", "assay": "Six-month study of twenty volunteers, monthly self-reported hair growth questionnaires", "conditions": "for participants who noticed new hair growth: lotion applied to scalp at least once a day", "description": "In a systematic study of twenty volunteers, including 8 women, study participants self-reported hair regrowth metrics by answering questionnaires at the end of each month of treatment with Formula (I) over the course of six months. The mean age of participants was 54 years old (SD=11 years). Participants had no history of hair implants and had normal eating and sleeping patterns. Participants first read and signed an informed consent form in which they were informed about the hair regeneration product, a lotion comprising Formula (I). The information about Formula (I) included that Formula (I) was designed to increase hair growth, that it was based on natural compounds, and that use of the product would not lead to harmful effects. Participants received explicit instructions on how to use the product, were asked to apply the product at least once a day on their scalp, and were asked not to use any other hair growth or regeneration products for the 6-month duration of the study. […] During this session photos were taken to measure and count any increases in hair regrowth, and participants answered questionnaires that probed the effects using Formula (I). Questionnaires comprised 14 yes or no questions based on Barber's 1998 the hair growth questionnaire. Barber et al., A hair growth questionnaire for use in the evaluation of therapeutic effects in men, J. DERMATOLOGICAL TREATMENT, Vol. 9(3), pp. 181-86 (1998). The questions included: • Did you notice new hair growth during the past month? • Did you notice new hair growth since the start of treatment? • Did you notice any new hair loss during the past month? • Did you notice any new hair loss since the start of the treatment? • Did you notice more hair loss than before since the start of the treatment? • Did you notice that your hairs felt thicker during the past month? • Did you notice that your hairs felt thicker since the start of the treatment? • Did you notice that your hairs felt more healthy during the past month? • Did you notice that your hairs felt more healthy since the start of the treatment? • The tenth and eleventh questions asked whether hairs felt less fragile during the past month and since the start of the treatment. • The final questions asked whether participants had noticed their hair color increasing and whether it became less grey/white during the past month and since the start of the treatment."}, "[4]": {"tested_on": "hair growth", "assay": "Before/after photographs of individual subjects (FIG. 2, FIG. 11)", "description": "The subject in FIG. 2A starts out with a complete bald spot. […] Before treatment with Formula (I), the subject shown in FIG. 2C has dark, balding hair."}, "[5]": {"tested_on": "collagen in sun damaged skin", "assay": "Cosmetic collagen regeneration clinical trial, high-resolution ultrasound scanner images of skin", "conditions": "ultrasound images before and after treatment, sun damaged skin (FIG. 12A/12B)", "method": "In yet further aspects of the inventive subject matter, cosmetic collagen regeneration effects of Formula (I) were assessed in a clinical trial run by Sempervivum, a medical esthetics company. Twenty-four volunteers (22 women and 2 men) participated in this study. Participants were on average 59 years old (Mean (M)=59 years, Standard Deviation (SD)=12 years). In this case, the age of the participants is 59 years with an average deviation of 12 years. Participants had no history of cosmetic surgery and stated to have normal eating and sleeping patterns. High-resolution ultrasound scanner images of collagen in sun damaged skin are shown in FIG. 12A (before treatment) and FIG. 12B (after treatment). […] It also appears that more interconnected collagen fibers are present in the dermis of the skin, and spots representing collagen seem to be more connected and closer to the epidermal layer."}, "[6]": {"conditions": "over the course of treatment, questionnaires (FIG. 10)"}}, "data": [{"smiles": "CC1=CC2(C(C)C)CC(=C1)C2(C)C", "note": "(centres unmarked) [Formula (I), 3,6,6-trimethyl-5-(propan-2-yl)bicyclo[3.1.1]hepta-1,3-diene]", "values": [{"measurement": "increase in long fine and thick hairs in balding participants", "setting": "[1]; after 6 months, photo analysis (FIG. 8)", "value": "triple to quadruple overall increases"}, {"measurement": "hair growth in bald participants, including alopecia patients", "setting": "[1]; photo analysis, participants initially with no hair at the probed place (FIG. 7)", "value": "both fine hairs and more thick hairs suddenly started to grow"}, {"measurement": "skin outcome of burned hand", "setting": "[2]", "value": "developed new smooth skin"}, {"measurement": "participants who noticed new hair growth", "setting": "[3]; after 1 month of treatment, self-reported", "value": 47, "unit": "%"}, {"measurement": "participants who noticed new hair growth", "setting": "[3]; after 6 months of treatment, self-reported", "value": 94, "unit": "%"}, {"measurement": "participants who noticed an increase in hair loss", "setting": "[3]; at some point during treatment, self-reported", "value": 20, "unit": "%"}, {"measurement": "overall effect on hair growth", "setting": "[3]; conclusion from questionnaires and photo analyses, 6-month study", "value": "highly effective in stimulating hair growth"}, {"measurement": "participants who noticed an increase in healthy hair, thicker hair and less fragile hair", "setting": "[3]; during the last month of treatment and since the start of treatment, self-reported (FIG. 5)", "value": "85-92%"}, {"measurement": "hair color in participants with white/grey hair before treatment", "setting": "[3]; last month of treatment and since start of treatment, self-reported (FIG. 6)", "value": "significant increase in color"}, {"measurement": "amount of thick hair in participants with thin hair", "setting": "[3]; over the course of treatment (FIG. 9)", "value": "significant increase in the amount of thick hair"}, {"measurement": "amount of white hair in participants with white/grey hair", "setting": "[3]; [6]", "value": "increased to a lesser extent"}, {"measurement": "black hair as percent of total hair in participants with white/grey hair", "setting": "[3]; [6]", "value": "increase in the percent of total hair that was black"}, {"measurement": "participants who noticed that some new hairs fell out", "setting": "[3]; over the whole course of the treatment, self-reported, alopecia patients excluded", "value": 14, "unit": "%"}, {"measurement": "hair regrowth at alopecia site, subject who lost all body hair after trauma", "setting": "[4]; after 4 months of treatment (FIG. 11A/11B)", "value": "hair growth at the alopecia site"}, {"measurement": "hair regrowth, subject with complete bald spot", "setting": "[4]; after 6 months of treatment (FIG. 2A/2B)", "value": "white hair has grown into the bald spot"}, {"measurement": "hair regrowth, subject with dark, balding hair", "setting": "[4]; after 6 months of treatment (FIG. 2C/2D)", "value": "dark hair has begun to regrow"}, {"measurement": "collagen in skin after treatment", "setting": "[5]", "value": "significant increases in collagen"}]}]}
